# Measured values as given in patent US20240360133A1, “FUSED TRICYCLIC COMPOUND, PREPARATION METHOD THEREFOR AND APPLICATION THEREOF IN MEDICINE” (Jiangsu Hengrui Pharmaceuticals Co., Ltd., priority 2020, published 2024).
# pIC50: −log10 of the molar value.
# Target: T1, human TLR9 (Homo sapiens, UniProt Q9NR96)
# T1 construct: host or cells: HEK-Blue hTLR9 (HEK293)
# T1 sequence (Q9NR96 26-1032): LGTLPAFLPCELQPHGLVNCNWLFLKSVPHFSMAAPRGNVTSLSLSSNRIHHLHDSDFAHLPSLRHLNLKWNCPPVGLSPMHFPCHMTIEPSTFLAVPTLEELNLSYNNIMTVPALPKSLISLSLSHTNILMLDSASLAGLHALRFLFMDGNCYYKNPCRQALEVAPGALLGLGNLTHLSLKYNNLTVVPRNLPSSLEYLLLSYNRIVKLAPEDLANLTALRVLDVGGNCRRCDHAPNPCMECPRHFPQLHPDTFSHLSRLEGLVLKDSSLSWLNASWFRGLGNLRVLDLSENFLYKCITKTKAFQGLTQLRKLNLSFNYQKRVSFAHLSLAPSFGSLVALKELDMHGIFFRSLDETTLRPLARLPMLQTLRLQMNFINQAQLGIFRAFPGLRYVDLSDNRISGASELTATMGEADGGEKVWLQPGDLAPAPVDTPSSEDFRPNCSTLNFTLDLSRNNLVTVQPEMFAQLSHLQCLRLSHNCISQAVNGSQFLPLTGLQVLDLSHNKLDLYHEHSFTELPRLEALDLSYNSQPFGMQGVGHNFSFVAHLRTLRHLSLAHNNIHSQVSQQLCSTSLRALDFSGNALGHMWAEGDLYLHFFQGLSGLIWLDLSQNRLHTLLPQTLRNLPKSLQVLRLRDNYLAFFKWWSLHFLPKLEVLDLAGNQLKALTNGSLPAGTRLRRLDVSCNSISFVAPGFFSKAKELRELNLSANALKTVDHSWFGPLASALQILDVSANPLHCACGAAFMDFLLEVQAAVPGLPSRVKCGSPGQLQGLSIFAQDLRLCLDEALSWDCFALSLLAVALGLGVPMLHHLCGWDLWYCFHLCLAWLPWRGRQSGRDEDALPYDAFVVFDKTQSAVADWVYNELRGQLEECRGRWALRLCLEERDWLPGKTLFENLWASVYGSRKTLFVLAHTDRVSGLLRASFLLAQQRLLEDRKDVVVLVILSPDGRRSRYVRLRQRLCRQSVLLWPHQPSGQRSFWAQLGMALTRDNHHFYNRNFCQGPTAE
# Assay: Inhibitory effect on human TLR9 activation pathway (HEK-Blue hTLR9 SEAP reporter)
# Type: cell-based
# Details: HEK-Blue hTLR9 cells, 1 μM CpG ODN2006, 20 h, SEAP OD620
# Procedure: • 1. HEK-Blue™ hTLR9 cell (Invivogen) • 2. CpG ODN2006 (Invivogen) • 3. Alkaline phosphatase detection medium (Quanti-Blue Detection. Invivogen) • 4. Blasticidin (Invivogen) • 5. Zeocin (Invivogen) • 6. Normocin (Invivogen) • 7. DMEM/HIGH Glucose (GE Healthcare) • 8. Fetal bovine serum (FBS, Gibco) • 9. Phosphate-buffered saline (Shanghai BasalMedia Technologies Co., Ltd.) • 10. Sterile purified water (made in-house by Shanghai Hengrui) • 11. 15 mL centrifuge tube (Corning) • 12. 96-well formulating plate (Corning) • 13. 96-well fat-bottom cell culture plate (Corning) • 14. Constant-temperature cell incubator (Thermo scientific) • 15. Constant-temperature incubator (Shanghai Yiheng Scientific Instruments Co., Ltd.) • 16. PHERAstar FS microplate reader (BMG Labtech)
# HEK-Blue™ hTLR9 cells were purchased from Invivogen. These cells are HEK293 cells transfected with the human Toll-like receptor 9 (TLR9) gene and the secreted alkaline phosphatase reporter gene (SEAP). The alkaline phosphatase reporter gene (SEAP) is under the regulation of the IFN-β minimal promoter comprising 5 NF-kB and AP-1 binding sites. Upon activation of TLR9 with an agonist, SEAP secretion is induced via downstream NF-kB and AP-1. Ater addition of an antagonist compound, the pathway described above is inhibited, and SEAP secretion is reduced. The activity of the compounds for the TLR9 pathway was evaluated by measuring OD620 through the SEAP substrate.
# 20 mM test compounds dissolved in 100% DMSO were serially diluted with 100% DMSO to 2000, 400, 80, 16, 3.2, 0.64, 0.128, 0.0256 IM, with blank wells containing 100% DMSO. […] The cells were cultured at 37° C. for 1-2 min, dispersed by pipetting, transferred to a 15 mL centrifuge tube, and counted, and the cell density was adjusted to 4.8×10^5/mL with the DMEM/HIGH glucose medium containing 10% inactivated FBS. […] Then the OD620 absorbance readings were taken on a microplate reader. The inhibition rate was calculated using the following formula: […]
row,pIC50,Compound
1,7.06,"Cc1cc(-c2[nH]c3cc4c(nc3c2C(C)C)CN(Cc2ccc(N3CCNCC3)cn2)CC4)cc(C)n1 [Example 5, 2-(2,6-Dimethylpyridin-4-yl)-3-isopropyl-6-((5-(piperazin-1-yl)pyridin-2-yl)methyl)-5,6,7,8-tetrahydro-1H-pyrrolo[3,2-b][1,7]naphthyridine]"
2,7.13,"Cc1cc(-c2[nH]c3cc4c(nc3c2C(C)C)CN(CCc2ccc(N3CCNCC3)nc2)CC4)cc(C)n1 [Example 4, 2-(2,6-Dimethylpyridin-4-yl)-3-isopropyl-6-(2-(6-(piperazin-4-yl)pyridin-3-yl)ethyl)-5,6,7,8-tetrahydro-1H-pyrrolo[3,2-b][1,7]naphthyridine]"
3,7.05,"Cc1cc(-c2[nH]c3cc4c(nc3c2C(C)C)CN(CC23CCC(N)(CC2)CC3)CC4)cc(C)n1 [Example 7, 4-((2-(2,6-Dimethylpyridin-4-yl)-3-isopropyl-1,5,7,8-tetrahydro-6H-pyrrolo[3,2-b][1,7]naphthyridin-6-yl)methyl)bicyclo[2.2.2]octyl-1-amine]"
